This is an account of results in patent US8314123B2, “5, 6, or 7-substituted -3-(hetero) arylisoquinolinamine derivatives and therapeutic use thereof” (Rexahn Pharmaceuticals, Inc., priority 2006, dated 2012).

Common to all, as to assay type: cell-based
Experiment [1] deals with OVCAR-3 (ovary). As to the kind of experiment: In vitro cell proliferation assay (SRB), OVCAR3. The note with it: Homo sapiens, SRB method, 96 hours, read-out: Inhibition of cell growth (IC50, μM) OVCAR3. The protocol: (§1) Cancer cell lines to determine the effect of 5, 6, or 7-substituted-3-(hetero)arylisoquinolinamine compounds were obtained from the following sources: Human MDA-MB-231 (breast), PC3 (prostate), HCT-15 (colon), HCT116 (colon), OVCAR-3 (ovary), Caki-1 (kidney), PANC-1 (pancreas), SNB-19 (glioblastoma) and SK-MEL-28 (melanoma) from the American Type Culture Collection (ATCC) (Manassas, Va.). PC3, OVCAR-3, SK-MEL-28 and SNB-19 were grown in RPMI1640 medium (Invitrogen, Carlsbad, Calif.) supplemented with 10% fetal bovine serum (“FBS”), 1 mM sodium pyruvate, 10 mM HEPES and 100 U/ml penicillin and 100 μg/ml streptomycin (“P/S”). MDA-MB-231, Caki-1, HCT-15 (colon) and PANC-1 cells were maintained in Dulbecco's modified Eagle's medium (“DMEM”, Invitrogen) supplemented with 10% FBS, P/S and 10 mM HEPES. HCT116 cells were maintained in DMEM supplemented with 10% FBS, P/S and 10 mM HEPES for in vitro cell proliferation assay and in RPMI1640 medium supplemented with 10% FBS, 1 mM sodium pyruvate, 10 mM HEPES and P/S for in vitro cell cycle analysis. All cells were incubated at 37° C. under humidified 5% CO2.
(§2) The growth inhibition of the 5, 6, or 7-substituted-3-(hetero)arylisoquinolinamine derivatives against a variety of human tumor cells was evaluated to study the relative importance of particular substituent groups on the compounds. The 5, 6, or 7-substituted-3-(hetero)arylisoquinolinamine derivatives, prepared as described above, were tested with DMSO as a control.
(§3) The growth inhibition assay of representative 5, 6, or 7-substituted-3-(hetero)arylisoquinolinamine derivatives against human tumor cell lines was performed using the Sulforhodamine B (“SRB”) method (Skehan et al., J. National Cancer Institute, 82: 1107-1112 (1990)). Briefly, exponentially growing tumor cells were seeded into a 96-well plate at a density of 2-3×10^3 cells/well and treated with 5, 6, or 7-substituted-3-(hetero)arylisoquinolinamine compounds the next day. Triplicate wells were used for each treatment. The cells were incubated with the various compounds for 96 hours at 37° C. in a humidified 5% CO2 atmosphere. After 96-hour incubation, cells were fixed with 10% trichloroacetic acid (“TCA”), incubated for 1 hour at 4° C., and washed 3 times with tap water. Subsequently, cells were stained with 0.4% sulforhodamine B in 1% acetic acid for 30 minutes, washed 4 times with 1% acetic acid, and air-dried again. After 5 minutes agitation in 10 mM Tris solution, the absorbance of each well was measured at 530 nm using Benchmark Plus Microplate reader (Bio-Rad Laboratories, Hercules, Calif.).
(§4) To translate the OD530 values into the number of live cells in each well, the OD530 values were compared to those on standard OD530-versus-cell number curves generated for each cell line. The percent survival was calculated using the formula: % Survival=live cell number [test]/live cell number [control]×100
(§5) The IC50 values were calculated by non-linear regression analysis.

Experiment [2] has as its system SNB-19 (glioblastoma). In words: In vitro cell proliferation assay (SRB), SNB19. The conditions noted are these: Homo sapiens, SRB method, 96 hours, read-out: Inhibition of cell growth (IC50, μM) SNB19. On the procedure: as §1, §2, §3, §4, §5
A general note: In SRB staining, fixed cells bind dye roughly in proportion to their protein.

The subject of experiment [3] is Caki-1 (kidney). In words: In vitro cell proliferation assay (SRB), Caki-1. The conditions noted are these: Homo sapiens, SRB method, 96 hours, read-out: Inhibition of cell growth (IC50, μM) Caki-1. The protocol: as §1, §2, §3, §4, §5
In experiment [4] the test system is MDA-MB-231 (breast). In words: In vitro cell proliferation assay (SRB), MDA-MB-231. The note with it: Homo sapiens, SRB method, 96 hours, read-out: Inhibition of cell growth (IC50, μM) MDA-MB-231. The protocol: as §1, §2, §3, §4, §5
Experiment [5] relates to SK-MEL-28 (melanoma). As to the kind of experiment: In vitro cell proliferation assay (SRB), SK-MEL-28. The note with it: Homo sapiens, SRB method, 96 hours, read-out: Inhibition of cell growth (IC50, μM) SK-MEL-28. The protocol:
as §1, §2, §3, §4, §5

Experiment [6] concerns human cancer cell lines. In words: Growth inhibition against the panel of human tumor cell lines (SRB), overall statements. The conditions noted are these: Table 3 cell lines. The protocol: as §1, §2, §3, §4, §5
Using QSAR and medicinal chemistry techniques, a large number of compounds, including the compounds shown in Table 1-2 above, were synthesized. The synthesized compounds were screened against at least four cancer cell lines, PANC-1, MDA-MB-231, HCT116 and Caki-1, at approximately 1 μM concentration. Compounds showing activity in at least one of these cell lines were selected for further screening. From these compounds, thirty compounds were selected for further evaluation as broad-spectrum anti-proliferative agents as shown in the following Table 3.

For experiment [7], the system named is PANC-1 (pancreas). As to the kind of experiment: In vitro cell proliferation assay (SRB), PANC-1. The note with it: Homo sapiens, SRB method, 96 hours, read-out: Inhibition of cell growth (IC50, μM) PANC-1. The protocol:
as §1, §2, §3, §4, §5

In experiment [8] the test system is PC3 (prostate). As to the kind of experiment: In vitro cell proliferation assay (SRB), PC3. The conditions noted are these: Homo sapiens; SRB method, 96 hours; read-out: Inhibition of cell growth (IC50, μM) PC3. The protocol:
as §1, §2, §3, §4, §5

Experiment [9] has as its system HCT116 (colon). In words: In vitro cell proliferation assay (SRB), HCT116. The note with it: Homo sapiens, HCT-116; SRB method, 96 hours; Table 3; read-out: Inhibition of cell growth (IC50, μM) HCT116. The protocol:
as §1, §2, §3, §4, §5

One may read the IC50 as the concentration at which inhibition is half-maximal. As for `Cc1ccc(Cl)cc1-c1cc2ccc(Cl)cc2c(N)n1` [Compound 10, 7-chloro-3-(5-chloro-2-methylphenyl)isoquinolin-1-amine], the IC50 was determined as 0.071 µM in [1]; 0.19 µM in [2]; 0.15 µM in experiment [3]; 0.11 µM in experiment [4]; 0.14 µM in experiment [5]; 0.17 µM in experiment [7]. Besides, the 50% inhibitory concentration (IC50) in experiment [8] is 0.26 µM; in [9], 0.14 µM. The “activity in growth inhibition of human cancer cell compared to Compound 23” value in experiment [6] is given as “equal or better activity”.

With `COc1ccc(-c2cc3ccc(N(C)C)cc3c(N)n2)cc1OC.Cl` [Compound 15, 3-(3,4-Dimethoxyphenyl)-N^7,N^7-dimethylisoquinoline-1,7-diamine hydrochloride], the IC50 in [1] came to 0.14 µM; in experiment [2], 0.25 µM; in experiment [3], 0.17 µM; in experiment [4] it was 0.15 µM; in experiment [5] it was 0.33 µM; in experiment [7] it was 0.19 µM. In addition, the 50% inhibitory concentration (IC50) in experiment [8] was found to be 0.23 µM; in experiment [9], 0.18 µM. Moreover, the “activity in growth inhibition of human cancer cell compared to Compound 23” value in [6] is given as “equal or better activity”.

Turning to `COc1cc(OC)cc(-c2cc3ccc(N(C)C)cc3c(N)n2)c1.Cl` [Compound 16, 3-(3,5-Dimethoxyphenyl)-N^7,N^7-dimethylisoquinoline-1,7-diamine hydrochloride], the IC50 stood at 0.025 µM in [1]; 0.057 µM in experiment [2]; 0.038 µM in [3]; 0.027 µM in [4]; 0.045 µM in experiment [5]; 0.026 µM in experiment [7]. Also, the half-inhibitory concentration (IC50) was 0.048 µM in [8] and 0.029 µM in experiment [9]. Moreover, the “activity in growth inhibition of human cancer cell compared to Compound 23” value in experiment [6] was “equal or better activity”.

As for `COc1cccc(-c2cc3cc(N(C)C)ccc3c(N)n2)c1` [Compound 21, 3-(3-Methoxyphenyl)-N^6,N^6-dimethyl-isoquinoline-1,6-diamine], the IC50 in [1] is 0.071 µM; in [2], 0.094 µM; in [3], 0.068 µM; in [4], 0.059 µM; in [5], 0.11 µM; in [7] it was 0.11 µM. Moreover, the half-maximal inhibitory concentration (IC50) in [8] came to 0.19 µM; in experiment [9], 0.064 µM. In addition, the “activity in growth inhibition of human cancer cell compared to Compound 23” value in experiment [6] is “equal or better activity”.

Take `COc1cccc(-c2cc3cc(C)ccc3c(N)n2)c1` [Compound 25, 3-(3-Methoxyphenyl)-6-methylisoquinolin-1-amine]: the IC50 in [1] was determined as 0.18 µM; in [2] it was 0.29 µM; in experiment [3], 0.13 µM; in [4] it was 0.14 µM; in experiment [5], 0.34 µM; in [7], 0.31 µM. Also, the IC50 in experiment [8] was 0.25 µM; in [9], 0.19 µM. In [6], the “activity in growth inhibition of human cancer cell compared to Compound 23” value was “equal or better activity”.

As for `Cc1ccc2c(N)nc(-c3ccc4c(c3)OCO4)cc2c1` [Compound 28, 3-(Benzo[d][1,3]dioxol-6-yl)-6-methylisoquinolin-1-amine], the IC50 in experiment [1] came to 0.16 µM; in experiment [2], 0.23 µM; in [3], 0.11 µM; in [4] it was 0.13 µM; in experiment [5], 0.22 µM; in [7], 0.22 µM. The IC50 stood at 0.19 µM in experiment [8] and 0.16 µM in experiment [9]. The “activity in growth inhibition of human cancer cell compared to Compound 23” value in experiment [6] is “equal or better activity”.

With `COc1ccc(-c2cc3cc(C)ccc3c(N)n2)c(C)c1` [Compound 31, 3-(4-Methoxy-2-methylphenyl)-6-methylisoquinolin-1-amine], the concentration for half-maximal inhibition (IC50) in [1] was determined as 0.17 µM; in experiment [2], 0.28 µM; in [3] it was 0.12 µM; in experiment [4], 0.15 µM; in [5] it was 0.29 µM; in experiment [7] it was 0.24 µM. Also, the values for the IC50 in experiment [8] and in [9] were 0.25 µM and 0.17 µM, respectively. Further, the “activity in growth inhibition of human cancer cell compared to Compound 23” value in experiment [6] is reported as “equal or better activity”.

On to `Cc1ccc2c(N)nc(-c3c(C)cccc3C)cc2c1` [Compound 34, 6-Methyl-3-(2,6-dimethylphenyl)isoquinolin-1-amine], for which the IC50 is 0.16 µM in [1]; 0.24 µM in experiment [2]; 0.12 µM in [3]; 0.14 µM in experiment [4]; 0.23 µM in experiment [5]; 0.21 µM in experiment [7]. Besides, the 50% inhibitory concentration (IC50) in experiment [8] amounted to 0.24 µM; in experiment [9], 0.17 µM. Besides, the “activity in growth inhibition of human cancer cell compared to Compound 23” value in experiment [6] is on record as “equal or better activity”.

As to `Cc1ccc(-c2cc3cc(C)ccc3c(N)n2)cc1` [Compound 36, 6-Methyl-3-p-tolylisoquinolin-1-amine], the IC50 in experiment [1] was 0.15 µM; in experiment [2] it was 0.21 µM; in [3] it was 0.16 µM; in experiment [4] it was 0.15 µM; in experiment [5], 0.25 µM; in experiment [7] it was 0.2 µM. Also, the results for the half-inhibitory concentration (IC50) in experiment [8] and in experiment [9] were 0.22 µM and 0.18 µM, respectively. Moreover, the “activity in growth inhibition of human cancer cell compared to Compound 23” value in [6] was “equal or better activity”.

`COc1ccc(-c2cc3ccc(C)cc3c(N)n2)c(C)c1` [Compound 42, 3-(4-Methoxy-2-methylphenyl)-7-methylisoquinolin-1-amine]: the IC50 stood at 0.13 µM in [1]; 0.2 µM in experiment [2]; 0.065 µM in [3]; 0.079 µM in experiment [4]; 0.21 µM in [5]; 0.18 µM in experiment [7]. The results for the IC50 in [8] and in [9] were 0.2 µM and 0.12 µM, respectively. In addition, the “activity in growth inhibition of human cancer cell compared to Compound 23” value in [6] is recorded as “equal or better activity”.

`Cc1ccc2cc(-c3ccc4c(c3)OCO4)nc(N)c2c1` [Compound 45, 3-(Benzo[d][1,3]dioxol-6-yl)-7-methylisoquinolin-1-amine]: the IC50 stood at 0.23 µM in [1]; 0.38 µM in experiment [2]; 0.13 µM in experiment [3]; 0.15 µM in [4]; 0.42 µM in [5]; 0.37 µM in [7]. The half-inhibitory concentration (IC50) in [8] came out at 0.25 µM; in [9] it was 0.18 µM. In addition, the “activity in growth inhibition of human cancer cell compared to Compound 23” value in [6] was “equal or better activity”.

Turning to `Cc1ccc2cc(-c3ccccc3C)nc(N)c2c1` [Compound 48, 7-Methyl-3-o-tolylisoquinolin-1-amine], the IC50 was found to be 0.1 µM in [1]; 0.16 µM in experiment [2]; 0.14 µM in experiment [3]; 0.075 µM in experiment [4]; 0.18 µM in experiment [5]; 0.2 µM in [7]. In addition, the IC50 was 0.26 µM in [8] and 0.12 µM in experiment [9]. Further, in experiment [6], the “activity in growth inhibition of human cancer cell compared to Compound 23” value is listed as “equal or better activity”.
